Patent US20070099890A1, “Novel cephalosporin derivatives, its pharmaceutically acceptable salts and manufacturing process thereof” (priority 2003, published 2007)
In brackets after ≈: the same amount, converted by molar mass. Where two headings read alike, the source gives them in different places. Blank lines part the entries; values can stand above or below the molecule they belong to.

Assays:
Experiment in all cases: In vitro antibacterial activity test (2-fold agar dilution MIC)
Assay type in all cases: cell-based
Conditions in all cases: for MIC: read-out: Minimum inhibitory concentrations (MICs)
[1] = test system: Staphylococcus aureus 001 (MRSA)
Method: (§1) The in vitro antibacterial activity of the compounds prepared in the Examples of the invention was determined as follows: after incubation of the corresponding bacterium for 18 h at 37° C., minimum inhibitory concentrations (MICs, μg/mL) were determined by the 2-fold agar dilution method with Mueller-Hinton Agar.

[2] = test system: Staphylococcus aureus 002 (MRSA)
Method: as §1

[3] = test system: Staphylococcus aureus 003 (MRSA)
Method: as §1

[4] = test system: Staphylococcus aureus 004 (MRSA)
Method: as §1

[5] = test system: Staphylococcus aureus 005 (MRSA)
Method: as §1

[6] = test system: Staphylococcus aureus 006 (MRSA)
Method: as §1

[7] = test system: Staphylococcus aureus 007 (MRSA)
Method: as §1

[8] = test system: Staphylococcus aureus 008 (MRSA)
Method: as §1

[9] = test system: Staphylococcus aureus 009 (MRSA)
Method: as §1

[10] = test system: Staphylococcus aureus 010 (MRSA)
Method: as §1

[11] = MRSA Staphylococcus aureus 001, 2-fold agar dilution, Mueller-Hinton Agar, 18 h at 37° C.
[12] = MRSA Staphylococcus aureus 002, 2-fold agar dilution, Mueller-Hinton Agar, 18 h at 37° C.
[13] = MRSA Staphylococcus aureus 003, 2-fold agar dilution, Mueller-Hinton Agar, 18 h at 37° C.
[14] = MRSA Staphylococcus aureus 004, 2-fold agar dilution, Mueller-Hinton Agar, 18 h at 37° C.
[15] = MRSA Staphylococcus aureus 005, 2-fold agar dilution, Mueller-Hinton Agar, 18 h at 37° C.
[16] = MRSA Staphylococcus aureus 006, 2-fold agar dilution, Mueller-Hinton Agar, 18 h at 37° C.
[17] = MRSA Staphylococcus aureus 007, 2-fold agar dilution, Mueller-Hinton Agar, 18 h at 37° C.
[18] = MRSA Staphylococcus aureus 008, 2-fold agar dilution, Mueller-Hinton Agar, 18 h at 37° C.
[19] = MRSA Staphylococcus aureus 009, 2-fold agar dilution, Mueller-Hinton Agar, 18 h at 37° C.
[20] = MRSA Staphylococcus aureus 010, 2-fold agar dilution, Mueller-Hinton Agar, 18 h at 37° C.
[21] = Staphylococcus aureus, MRSA, 18 h

Minimum inhibitory concentrations (MICs) [1, 11]: 3.125 µg/mL (≈ 5.22 µM) | Minimum inhibitory concentrations (MICs) [2, 12]: 0.002 µg/mL (≈ 0.00334 µM) | Minimum inhibitory concentrations (MICs) [3, 13]: 6.250 µg/mL (≈ 10.4 µM) | Minimum inhibitory concentrations (MICs) [4, 14]: 3.125 µg/mL (≈ 5.22 µM) | Minimum inhibitory concentrations (MICs) [5, 15]: 0.098 µg/mL (≈ 0.164 µM) | Minimum inhibitory concentrations (MICs) [6, 16]: 0.004 µg/mL (≈ 0.00668 µM) | Minimum inhibitory concentrations (MICs) [7, 17]: <0.002 µg/mL | Minimum inhibitory concentrations (MICs) [8, 18]: 0.195 µg/mL (≈ 0.326 µM) | Minimum inhibitory concentrations (MICs) [9, 19]: 0.195 µg/mL (≈ 0.326 µM) | Minimum inhibitory concentrations (MICs) [10, 20]: 0.195 µg/mL (≈ 0.326 µM)
Structure (SMILES): O=C(CSc1ccccc1)N[C@@H]1C(=O)N2C(C(=O)O)=C(C=Cc3cc(-c4ccc(Br)cc4)no3)CS[C@H]12 [Compound 30]

MIC [1, 11]: 25 µg/mL (≈ 54.9 µM) | MIC [2, 12]: 3.12 µg/mL (≈ 6.86 µM) | MIC [3, 13]: > 100 µg/mL | MIC [4, 14]: > 10 µg/mL | MIC [5, 15]: 6.25 µg/mL (≈ 13.7 µM) | MIC [6, 16]: 1.56 µg/mL (≈ 3.43 µM) | MIC [7, 17]: 1.56 µg/mL (≈ 3.43 µM) | MIC [8, 18]: 1.56 µg/mL (≈ 3.43 µM) | MIC [9, 19]: 6.25 µg/mL (≈ 13.7 µM) | MIC [10, 20]: 6.25 µg/mL (≈ 13.7 µM)
Structure (SMILES): CO/N=C(\C(=O)N[C@@H]1C(=O)N2C(C(=O)O)=C(COC(C)=O)CS[C@H]12)c1csc(N)n1 [cefotaxime]

Structure (SMILES): CN[C@H](CC(C)C)C(=O)N[C@H]1C(=O)N[C@@H](CC(N)=O)C(=O)N[C@H]2C(=O)N[C@H]3C(=O)N[C@H](C(=O)N[C@H](C(=O)O)c4cc(O)cc(O)c4-c4cc3ccc4O)[C@H](O)c3ccc(c(Cl)c3)Oc3cc2cc(c3O[C@@H]2O[C@H](CO)[C@@H](O)[C@H](O)[C@H]2O[C@H]2C[C@](C)(N)[C@H](O)[C@H](C)O2)Oc2ccc(cc2Cl)[C@H]1O [vancomycin]
MIC [1, 21]: 3.12 µg/mL (≈ 2.16 µM) | MIC [2, 21]: 1.56 µg/mL (≈ 1.08 µM) | MIC [3, 21]: 0.781 µg/mL (≈ 0.539 µM) | MIC [4, 21]: 0.781 µg/mL (≈ 0.539 µM) | MIC [5, 21]: 0.781 µg/mL (≈ 0.539 µM) | MIC [6, 21]: 0.781 µg/mL (≈ 0.539 µM) | MIC [7, 21]: 0.781 µg/mL (≈ 0.539 µM) | MIC [8, 21]: 0.781 µg/mL (≈ 0.539 µM) | MIC [9, 21]: 0.781 µg/mL (≈ 0.539 µM) | MIC [10, 21]: 0.781 µg/mL (≈ 0.539 µM)
